Data on 7 compounds can be found in US12617771B2, “Diphenylpyrazole compound, and preparation method therefor and application thereof” (NORTHWEST A&F UNIVERSITY, priority 2021, dated 2026).

Data set [1] relates to resistant strains of Plutella xylostella. Description: Insecticidal synergistic activity with indoxacarb, leaf dip, resistant strains (Huizhou). It counts as in vivo. The following applies: for Resistance ratio to indoxacarb: 48 hours. As to the method: Experiment: 95% indoxacarb (Ind) original drug was prepared into mother liquor with a concentration of 50000 mg/L. During the test, 6 treatment solutions with concentrations of 500, 250, 125, 62.5, 31.25 and 15.63 mg/L were prepared. 200 mg/L of the compounds PXG1, PXG2 and PXG22 of the present invention were added to each treatment solution, 200 mg/L of diethyl maleate (DEM) was used as the control synergist, and water was used as another control. The Plutella xylostella (Linnaeus) larvae was collected from a vegetable field in Huizhou city, Guangdong Province. Healthy 3rd instar larvae of the same age were selected for indoor biological activity assay.
Clean wild cabbage leaves were cut into discs with a diameter of 6.5 cm (avoiding main veins). The leaves were soaked in the pesticide solution for 10 seconds, then taken out, dried at 25° C., and placed in a petri dish with a diameter of 6.5 cm. 10 larvae of the resistant strains of Plutella xylostella at the early stage of 3rd instar were placed in each petri dish, which was covered with double-layer absorbent roll paper, and covered by the upper cover of the petri dish. It was placed face up in an incubator at a temperature of 25±1° C., a relative humidity of 65%-70%, and a light ratio (L:D) of 16: 8 h. Each treatment was replicated 4 times with 10 larvae per replicate. […] The test process is strictly in accordance with the standard: NY/T 1154.7-2006.
Experimental data analysis was carried out using practical statistical analysis and its computer processing platform (DPS) (TANG Qiyi et al., 1997). The toxicity regression equation of each agent was established, LC50 value and 95% confidence limit were calculated.

Data set [2] addresses PxGSTε3 (Plutella xylostella, UniProt O77409). The data set is described as follows: Inhibition of PxGSTε3 recombinant protein. It counts as biochemical. Conditions: read-out: 100 μM Inhibition rate %. A digest of the protocol: (§1)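 Recombinant Plutella xylostella GSTs (1 μg) preincubated with compound in 100 mM PBS pH 7.2, 10 min, 30 °C; 1 mM CDNB and 1 mM GSH in PBS then added. A340 read every 1 min for 5 min; inhibition from A340 change vs control, IC50 by curve fit, triplicate.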

In data set [3] the target is PxGSTσ1 (Plutella xylostella, UniProt Q6F436). Description: Inhibition of PxGSTσ1 recombinant protein. Conditions: read-out: 100 μM Inhibition rate %. The class given is biochemical. A digest of the protocol: as §1
Data set [4] concerns the target PxGSTσ2 (Plutella xylostella, UniProt Q6F443). Description: Inhibition of PxGSTσ2 recombinant protein. Conditions: read-out: 100 μM Inhibition rate %. The class given is biochemical. A digest of the protocol:
as §1

Data set [5] deals with PxGSTδ1 (Plutella xylostella, UniProt D7URW9). The data set is described as follows: Inhibition of PxGSTδ1 recombinant protein. The class given is biochemical. The following applies: read-out: 100 μM Inhibition rate %. A digest of the protocol: as §1
The target in data set [6] is Pyrausta nubilalis GSTs. Description: Inhibition of total GSTs enzyme of Pyrausta nubilalis (CDNB method). It counts as biochemical. A digest of the protocol: (§2)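 Total GSTs were taken from the 14,000 g supernatant of larval/nymph homogenate in 100 mM sodium phosphate with 1 mM EDTA, pH 7.2. Enzyme (5 μg) was preincubated with compound in PBS pH 7.2 containing 1 mM GSH for 10 min at 30 °C, then started with buffer containing 1 mM CDNB. IC50 was derived from inhibition of the 5-min ΔA340, done in triplicate.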

Data set [7] concerns the target Mythimna separata GSTs. The data set is described as follows: Inhibition of total GSTs enzyme of Mythimna separata (CDNB method). The class given is biochemical. A digest of the protocol:
as §2

The target in data set [8] is Spodoptera frugiperda GSTs. Description: Inhibition of total GSTs enzyme of Spodoptera frugiperda (CDNB method). The class given is biochemical. A digest of the protocol: as §2
Data set [9] deals with Plutella xylostella GSTs. Description: Inhibition of total GSTs enzyme of Plutella xylostella (CDNB method). It counts as biochemical. A digest of the protocol:
as §2

Data set [10] addresses Nilaparvata lugens GSTs. Description: Inhibition of total GSTs enzyme of Nilaparvata lugens (CDNB method). The class given is biochemical. A digest of the protocol:
as §2

Data set [11] deals with Spodoptera litura GSTs. Description: Inhibition of total GSTs enzyme of Spodoptera litura (CDNB method). The class given is biochemical. A digest of the protocol:
as §2

Data set [12] has as its target Chilo suppressalis GSTs. Description: Inhibition of total GSTs enzyme of Chilo suppressalis (CDNB method). It counts as biochemical. A digest of the protocol:
as §2

For data set [13], the target named is Carposina sasakii GSTs. The data set is described as follows: Inhibition of total GSTs enzyme of Carposina sasakii (CDNB method). It counts as biochemical. A digest of the protocol:
as §2

The target of data set [14] is Helicoverpa armigera GSTs. Description: Inhibition of total GSTs enzyme of Helicoverpa armigera (CDNB method). It counts as biochemical. A digest of the protocol:
as §2

The mark [15] stands for this setting: indoxacarb alone or with 200 mg/L synergist.

Chain of PxGSTσ2 (Q6F443 entry or part of it): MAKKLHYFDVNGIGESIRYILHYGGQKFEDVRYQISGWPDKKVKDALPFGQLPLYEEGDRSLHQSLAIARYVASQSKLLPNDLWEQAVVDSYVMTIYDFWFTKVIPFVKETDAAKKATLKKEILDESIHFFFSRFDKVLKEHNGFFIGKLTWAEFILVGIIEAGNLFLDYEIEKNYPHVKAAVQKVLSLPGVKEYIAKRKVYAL
Chain of PxGSTσ1 (Q6F436 entry or part of it): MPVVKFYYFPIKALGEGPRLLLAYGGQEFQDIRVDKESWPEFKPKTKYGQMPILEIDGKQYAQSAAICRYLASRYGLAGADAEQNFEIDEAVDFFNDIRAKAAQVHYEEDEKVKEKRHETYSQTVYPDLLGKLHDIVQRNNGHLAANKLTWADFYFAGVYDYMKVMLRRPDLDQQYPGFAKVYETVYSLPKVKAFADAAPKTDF
Chain of PxGSTε3 (O77409 entry or part of it): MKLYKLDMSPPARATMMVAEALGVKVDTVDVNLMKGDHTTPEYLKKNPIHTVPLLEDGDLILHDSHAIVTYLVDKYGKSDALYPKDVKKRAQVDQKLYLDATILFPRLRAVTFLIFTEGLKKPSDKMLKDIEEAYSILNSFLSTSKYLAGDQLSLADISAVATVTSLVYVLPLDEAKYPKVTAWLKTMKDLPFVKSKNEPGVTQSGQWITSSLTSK
Chain of PxGSTδ1 (D7URW9 entry or part of it): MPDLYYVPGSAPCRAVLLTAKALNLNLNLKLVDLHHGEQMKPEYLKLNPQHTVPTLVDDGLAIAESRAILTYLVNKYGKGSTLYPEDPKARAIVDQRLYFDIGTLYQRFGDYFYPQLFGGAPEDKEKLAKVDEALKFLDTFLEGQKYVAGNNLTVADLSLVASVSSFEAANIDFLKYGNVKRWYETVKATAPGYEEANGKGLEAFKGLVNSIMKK

In the case of `COC(=O)N(C(=O)N1CO[C@@]2(C(=O)OC)Cc3cc(Cl)ccc3C2=N1)c1ccc(OC(F)(F)F)cc1` [Ind, Indoxacarb, reference compound], the LC50 of indoxacarb in [1] (indoxacarb alone or with 200 mg/L synergist, 3rd instar larvae, mortality after 48 hours) came out at 74.72 mg/L. Besides, the “Resistance ratio to indoxacarb” value in data set [1] (setting [15]) came to 143.70.
Consider `Cc1csc(CC(=O)NNC(=O)c2cc(-c3ccccc3)nn2-c2ccccc2)n1` [PXG2, N′-[2-(4-methyl-1,3-thiazol-2-yl)acetyl]-1,3-diphenyl-1H-pyrazol-5-yl-carbohydrazide], for which the inhibition at 100 µM is -4% in data set [2], 25.1% in data set [3], 14.6% in data set [4] and 87.8% in data set [5]. In addition, the LC50 of indoxacarb in data set [1] (in vivo) came to 39.93 mg/L. Further, the “Resistance ratio to indoxacarb” value in data set [1] (setting [15]) is 76.78.
Consider `COc1ccccc1OCC(=O)NNC(=O)c1cc(-c2ccccc2)nn1-c1ccccc1` [PXG18, N′-(1,3-diphenyl-1H-pyrazol-5-yl-carbonyl)-2-(2-methoxyphenoxy)acetohydrazide], for which the IC50 in data set [6], in [7], in data set [8], in data set [9], in data set [10] and in [11] was above 100 µM throughout. For the same compound, the IC50 in data set [12], in data set [13] and in data set [14] was above 100 µM each time. Besides, the “100 μM Inhibition rate %” value in [6] was 23.84%; in data set [7], −2.16%; in [8], 28.67%; in [9] it was 32.94%; in data set [10], 45.31%; in data set [11], 7.95%. For the same compound, the “100 μM Inhibition rate %” value in [12] was 23.00%; in data set [13], 13.69%; in data set [14] it was −3.02%. Besides, the inhibition at 100 µM is -2.47% in data set [2], 31.7% in data set [3], 13.5% in data set [4] and 82% in [5].
Turning to `N#Cc1ccc(OCC(=O)NNC(=O)c2cc(-c3ccccc3)nn2-c2ccccc2)cc1` [PXG19, 2-(4-cyanophenoxy)-N′-(1,3-diphenyl-1H-pyrazol-5-yl-carbonyl)acetohydrazide], the IC50 in [6], in data set [7], in data set [8], in data set [9], in data set [10] and in [11] was above 100 µM in each case. The IC50 in data set [12], in [13] and in [14] was above 100 µM in each case. Moreover, the “100 μM Inhibition rate %” value in data set [6] was 15.64%; in data set [7] it was 47.16%; in data set [8], 19.64%; in data set [9], 23.03%; in [10], 10.00%; in data set [11], 31.70%. Besides, the “100 μM Inhibition rate %” value in [12] stood at 22.03%; in data set [13] it was 19.42%; in [14], 6.30%. The inhibition at 100 µM in [2] came to 5.57%; in data set [3], 45.9%; in data set [4], 32.5%; in data set [5] it was 58.7%.
For `N#Cc1ccccc1OCC(=O)NNC(=O)c1cc(-c2ccccc2)nn1-c1ccccc1` [PXG23, 2-(2-cyanophenoxy)-N′-(1,3-diphenyl-1H-pyrazol-5-yl-carbonyl)acetohydrazide], the IC50 in [6], in data set [7], in [8], in data set [9], in data set [10] and in data set [11] was above 100 µM in each case. In addition, the IC50 in data set [12], in data set [13] and in data set [14] was above 100 µM throughout. The “100 μM Inhibition rate %” value is 15.55% in data set [6]; 22.92% in data set [7]; 22.33% in data set [8]; 26.35% in [9]; 24.74% in data set [10]; 12.89% in data set [11]. Further, the “100 μM Inhibition rate %” value in [12] worked out at 22.83%; in [13], 19.76%; in [14], 0.43%. Further, the inhibition at 100 µM in data set [2] was determined as 6.04%; in [3], 35.9%; in data set [4], 26.9%; in [5], 77.7%.
For the compound `O=C(CC12C[C@H]3C[C@H](C1)C[C@@H](C2)C3)NNC(=O)c1cc(-c2ccccc2)nn1-c1ccccc1` [PXG26, N′-(1,3-diphenyl-1H-pyrazol-5-yl-carbonyl)-2-[(3r)-adamantan-1-yl]acetohydrazide], the IC50 in data set [6], in data set [7], in data set [8], in [9], in [10] and in [11] was above 100 µM in each case. The IC50 in data set [12], in data set [13] and in data set [14] was above 100 µM each time. In addition, the “100 μM Inhibition rate %” value in data set [6] is recorded as −0.99%; in data set [7], 42.48%; in data set [8], 16.01%; in data set [9], 25.09%; in data set [10], 28.56%; in data set [11], 15.89%. Also, the “100 μM Inhibition rate %” value is 17.07% in data set [12], 18.11% in data set [13] and 24.75% in data set [14]. For the same compound, the inhibition at 100 µM in data set [2] came to 7.12%; in data set [3] it was 67.9%; in [4] it was 24.7%; in [5], 21.6%.
For the compound `CN(C)S(=O)(=O)c1ccc(C(=O)NNC(=O)c2cc(-c3ccccc3)nn2-c2ccccc2)cc1` [PXG29, 4-[N′-(1,3-diphenyl-1H-pyrazol-5-yl-carbonyl) hydrazinocarbonyl]-N,N-dimethyl phenyl-1-sulfonamide], the IC50 in data set [6], in data set [7], in data set [8], in data set [9], in data set [10] and in [11] was above 100 µM throughout. The IC50 in [12], in [13] and in data set [14] was above 100 µM in each case. Further, the “100 μM Inhibition rate %” value in data set [6] is 10.83%; in [7] it was 4.90%; in data set [8], 4.82%; in [9], 9.32%; in data set [10], −10.71%; in [11], 4.60%. Also, the “100 μM Inhibition rate %” value turned out to be 13.81% in data set [12], 33.57% in [13] and 10.99% in data set [14]. The inhibition at 100 µM in [2] worked out at 0.03%; in data set [3] it was 53.3%; in [4], 44.7%; in [5], 16.7%.

A word on the inhibition: it is the relative decrease from the control value, in per cent. The term IC50 denotes the point on the concentration scale where inhibition reaches its midpoint. Low readings indicate inhibition by little substance, high ones a need for much substance.
